Read-outs that look alike come from different tables or passages of the source.
How the values were obtained:
[1] = molecular target: T1, AHR (Mus musculus, UniProt P30561); experiment: In vitro assay 3: antagonism in mouse cell line (AHR transactivation, firefly luciferase reporter, kynurenic acid prestimulated); format: cell-based
T1 sequence (P30561 1-848 P471L/N533S/M589L): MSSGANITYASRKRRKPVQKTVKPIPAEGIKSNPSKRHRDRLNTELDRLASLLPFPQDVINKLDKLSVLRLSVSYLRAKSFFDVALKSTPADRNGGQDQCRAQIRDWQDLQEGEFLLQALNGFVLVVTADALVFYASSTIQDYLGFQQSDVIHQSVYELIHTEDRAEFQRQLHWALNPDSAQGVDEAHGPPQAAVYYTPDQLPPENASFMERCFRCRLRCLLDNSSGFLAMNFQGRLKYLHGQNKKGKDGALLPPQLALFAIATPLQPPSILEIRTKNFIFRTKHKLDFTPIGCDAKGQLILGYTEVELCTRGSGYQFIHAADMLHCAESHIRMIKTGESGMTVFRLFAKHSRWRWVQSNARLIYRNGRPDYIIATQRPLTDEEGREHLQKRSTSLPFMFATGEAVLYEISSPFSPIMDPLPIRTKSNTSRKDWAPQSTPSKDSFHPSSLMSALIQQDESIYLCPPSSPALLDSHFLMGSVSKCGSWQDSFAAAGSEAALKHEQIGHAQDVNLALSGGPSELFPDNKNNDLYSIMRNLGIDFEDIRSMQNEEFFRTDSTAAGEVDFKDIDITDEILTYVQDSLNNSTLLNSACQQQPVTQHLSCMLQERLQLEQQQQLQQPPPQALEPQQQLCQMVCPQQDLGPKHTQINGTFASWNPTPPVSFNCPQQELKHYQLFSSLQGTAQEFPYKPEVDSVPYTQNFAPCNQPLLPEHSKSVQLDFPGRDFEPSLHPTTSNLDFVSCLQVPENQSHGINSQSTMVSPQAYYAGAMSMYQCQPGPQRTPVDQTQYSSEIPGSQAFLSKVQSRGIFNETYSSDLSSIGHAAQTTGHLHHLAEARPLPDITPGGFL
Outline: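 Cells were first stimulated with kynurenic acid, then exposed to test compound, after which firefly luciferase from a DRE-containing AHR reporter was read out. Signal was scaled between positive and negative controls. Cells not given kynurenic acid provided the inhibition reference.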

[2] = molecular target: T2, AHR (Homo sapiens, UniProt P35869); experiment: In vitro assay 1: antagonism in human cell line (AHR transactivation, firefly luciferase reporter, kynurenic acid prestimulated); format: cell-based; conditions: AHR Antagonism Human IC50 [M]
T2 construct: U87 MG glioblastoma cells (ATCC #HTB-14) endogenously expressing AHR; endogenous in cells; host or cells: U87 MG glioblastoma cells (ATCC #HTB-14)
T2 sequence (P35869 11-848): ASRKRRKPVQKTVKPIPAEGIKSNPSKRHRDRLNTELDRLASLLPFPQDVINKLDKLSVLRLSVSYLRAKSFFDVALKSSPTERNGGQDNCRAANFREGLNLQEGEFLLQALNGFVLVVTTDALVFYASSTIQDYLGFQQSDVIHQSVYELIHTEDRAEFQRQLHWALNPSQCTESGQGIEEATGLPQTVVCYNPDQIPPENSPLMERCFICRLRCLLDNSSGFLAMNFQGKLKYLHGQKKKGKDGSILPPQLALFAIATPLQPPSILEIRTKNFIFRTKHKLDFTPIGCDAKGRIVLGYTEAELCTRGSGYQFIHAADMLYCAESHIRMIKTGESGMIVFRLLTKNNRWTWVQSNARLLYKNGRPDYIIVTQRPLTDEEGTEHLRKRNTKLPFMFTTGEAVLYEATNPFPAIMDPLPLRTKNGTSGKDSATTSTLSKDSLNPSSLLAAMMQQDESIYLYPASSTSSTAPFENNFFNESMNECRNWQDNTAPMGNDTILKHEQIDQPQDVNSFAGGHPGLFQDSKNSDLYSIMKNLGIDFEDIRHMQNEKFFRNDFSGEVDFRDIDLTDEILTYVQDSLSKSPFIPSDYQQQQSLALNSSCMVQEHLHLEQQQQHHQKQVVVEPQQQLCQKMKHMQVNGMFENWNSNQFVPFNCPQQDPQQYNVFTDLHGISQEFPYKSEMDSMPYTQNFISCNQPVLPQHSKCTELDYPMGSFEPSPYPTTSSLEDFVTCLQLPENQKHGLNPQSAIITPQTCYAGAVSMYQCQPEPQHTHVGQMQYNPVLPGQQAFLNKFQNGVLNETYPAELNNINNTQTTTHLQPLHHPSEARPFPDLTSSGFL
Outline: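 U87 MG + DRE-firefly/constitutive-Renilla stable reporters; kynurenic acid prestim; dual-luc read; Renilla = tox; normalized vs pos/neg controls (pos: 150 μM KYNA + 5 μM staurosporine).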

[3] = mouse Hepa 1c1c7 cells, 200 μM kynurenic acid, 20 hours, read-out: AHR Antagonism Mouse IC50
[4] = Hepa 1c1c7 cells, 200 μM kynurenic acid, 20 hours, firefly luciferase reporter, read-out: AHR Antagonism Mouse IC50
[5] = read-out: AHR Antagonism Mouse IC50, mouse Hepa 1c1c7 cells, 200 μM kynurenic acid, 20 hours

| SMILES | IC50 [1, 3] [nM] | IC50 [2] [M] | IC50 [1, 4] [nM] | IC50 ([2]; firefly luciferase reporter) [M] | IC50 [1, 5] [nM] |
| --- | --- | --- | --- | --- | --- |
| COc1cccc2c1nc(N[C@@H]1CCCCNC1=O)n1nc(-c3cnn(C4CCC4)c3)nc21 [Example 758, (3R)-3-{[2-(1-cyclobutyl-1H-pyrazol-4-yl)-7-methoxy[1,2,4]triazolo[1,5-c]quinazolin-5-yl]amino}azepan-2-one] | 19.6 | 1.35e-08 |  |  |  |
| Cc1c(-c2nc3c4cccc(F)c4nc(N[C@@H]4CNCCNC4=O)n3n2)cnn1C [Example 969, (6R)-6-{[2-(1,5-dimethyl-1H-pyrazol-4-yl)-7-fluoro[1,2,4]triazolo[1,5-c]quinazolin-5-yl]amino}-1,4-diazepan-5-one] |  |  | 298 | 6.3e-07 |  |
| CC[C@@H](Nc1nc2ccccc2c2nc(-c3ccc(OC)cc3OC(F)(F)F)nn12)C(N)=O [Example 511, (2R)-2-({2-[4-methoxy-2-(trifluoromethoxy)phenyl][1,2,4]triazolo[1,5-c]quinazolin-5-yl}amino)butanamide] | 1.4 | 7.5e-09 |  |  |  |
| COc1ccc(-c2nc3c4ccccc4nc(N[C@H]4CCCCNC4=O)n3n2)c(C(F)(F)F)c1 [Example 513, (3S)-3-({2-[4-methoxy-2-(trifluoromethyl)phenyl][1,2,4]triazolo[1,5-c]quinazolin-5-yl}amino)azepan-2-one] | 35.6 | 2.66e-07 |  |  |  |
| CCC[C@@H](Nc1nc2ccccc2c2nc(-c3ccc(OC)cc3OC(F)(F)F)nn12)C(=O)NC [Example 510, N^2-{2-[4-methoxy-2-(trifluoromethoxy)phenyl][1,2,4]triazolo[1,5-c]quinazolin-5-yl}-N-methyl-D-norvalinamide] | 11.7 | 5.39e-08 |  |  |  |
| CS(=N)(=O)c1cccc(-c2nc3c4ccccc4nc(N[C@@H]4CCCCNC4=O)n3n2)c1 (single isomer, unassigned) [Example 660] | 927 | 8.48e-07 |  |  |  |
| CCOC(=O)[C@@H](C)Nc1nc2ccccc2c2nc(-c3ccc(OC)cc3)nn12 [Example 657, ethyl N-[2-(4-methoxyphenyl)[1,2,4]triazolo[1,5-c]quinazolin-5-yl]-D-alaninate] | 82.1 | 1.4e-08 |  |  |  |
| CCSc1cccc2c1nc(N[C@@H]1CNCCNC1=O)n1nc(-c3ccc(OC)cc3)nc21 [Example 939, (6R)-6-{[7-(ethylsulfanyl)-2-(4-methoxyphenyl)[1,2,4]triazolo[1,5-c]quinazolin-5-yl]amino}-1,4-diazepan-5-one] |  |  | 22.5 | 1.19e-08 |  |
| CSc1ccc(-c2nc3c4ccccc4nc(N[C@@H]4CCCCNC4=O)n3n2)c(F)c1 [Example 630, (3R)-3-({2-[2-fluoro-4-(methylsulfanyl)phenyl][1,2,4]triazolo[1,5-c]quinazolin-5-yl}amino)azepan-2-one] | 0.861 | 4.83e-10 |  |  |  |
| O=C1NCCNC[C@H]1Nc1nc2c(C(F)(F)F)cccc2c2nc(-c3ccc(F)cc3)nn12 [Example 423, (6R)-6-{[2-(4-fluorophenyl)-7-(trifluoromethyl)[1,2,4]triazolo[1,5-c]quinazolin-5-yl]amino}-1,4-diazepan-5-one] | 0.349 | 2.81e-10 |  |  |  |
| N#Cc1cccc2c1nc(N[C@@H]1CCCCNC1=O)n1nc(-c3cnn(C4CCC4)c3)nc21 [Example 762, 2-(1-cyclobutyl-1H-pyrazol-4-yl)-5-{[(3R)-2-oxoazepan-3-yl]amino}[1,2,4]triazolo[1,5-c]quinazoline-7-carbonitrile] |  | 2.44e-09 |  |  | 7.01 |
| CCCCNC(=O)[C@@H](C)Nc1nc2c(Br)cccc2c2nc(-c3ccc(Cl)cc3OC(F)F)nn12 [Example 684, N^2-{7-bromo-2-[4-chloro-2-(difluoromethoxy)phenyl][1,2,4]triazolo[1,5-c]quinazolin-5-yl}-N-butyl-D-alaninamide] | 0.896 | 3.39e-09 |  |  |  |
| CCCCNC(=O)[C@@H](C)Nc1nc2c(C(F)(F)F)cccc2c2nc(-c3cnn(C)c3)nn12 [Example 751, N-butyl-N^2-[2-(1-methyl-1H-pyrazol-4-yl)-7-(trifluoromethyl)[1,2,4]triazolo[1,5-c]quinazolin-5-yl]-D-alaninamid] | 54.7 | 1.47e-08 |  |  |  |
| O=C1NCCCC[C@H]1Nc1nc2ccccc2c2nc(-c3ccccc3C(F)(F)F)nn12 [Example 52, (3R)-3-({2-[2-(trifluoromethyl)phenyl][1,2,4]triazolo[1,5-c]quinazolin-5-yl}amino)azepan-2-one] | 3.22 | 1.3e-08 |  |  |  |
| CC(C)c1cccc2c1nc(N[C@@H]1CCCCNC1=O)n1nc(-c3ccc(F)cc3)nc21 [Example 393, (3R)-3-{[2-(4-Fluorophenyl)-7-(propan-2-yl)[1,2,4]triazolo[1,5-c]quinazolin-5-yl]amino}azepan-2-one] |  | 4.34e-08 |  |  | 34.2 |
| O=C1NCCCC[C@H]1Nc1nc2ccccc2c2nc(-c3ccccc3Br)nn12 [Example 452, (3R)-3-{[2-(2-bromophenyl)[1,2,4]triazolo[1,5-c]quinazolin-5-yl]amino}azepan-2-one] | 3.35 | 3.98e-09 |  |  |  |
| COc1ccc(-c2nc3c4cccc(C(F)(F)F)c4nc(N[C@@H]4CNCCNC4=O)n3n2)cc1 [Example 422, (6R)-6-{[2-(4-methoxyphenyl)-7-(trifluoromethyl)[1,2,4]triazolo[1,5-c]quinazolin-5-yl]amino}-1,4-diazepan-5-one] | 0.927 | 3.61e-10 |  |  |  |
| COc1cccc(-c2nc3c4cc(F)ccc4nc(NC4CCCNC4=O)n3n2)c1 (single isomer, unassigned) [Example 188, 3-{[9-fluoro-2-(3-methoxyphenyl)[1,2,4]triazolo[1,5-c]quinazolin-5-yl]amino}piperidin-2-one] | 50.4 | 3e-08 |  |  |  |
| CC(C)(C)c1noc(-c2nc3c4ccccc4nc(N[C@@H]4CCCCNC4=O)n3n2)n1 [Example 134, (3R)-3-{[2-(3-tert-butyl-1,2,4-oxadiazol-5-yl)[1,2,4]triazolo[1,5-c]quinazolin-5-yl]amino}azepan-2-one] | 86.8 | 8.35e-08 |  |  |  |
| Cc1n[nH]cc1-c1nc2c3cccc(C(F)(F)F)c3nc(N[C@@H]3CCCCNC3=O)n2n1 [Example 746, (3R)-3-{[2-(3-methyl-1H-pyrazol-4-yl)-7-(trifluoromethyl)[1,2,4]triazolo[1,5-c]quinazolin-5-yl]amino}azepan-2-one] | 45.6 | 7.48e-09 |  |  |  |
| Cn1cc(-c2nc3c4c(F)cccc4nc(N[C@@H]4CCCCNC4=O)n3n2)cn1 [Example 244, (3R)-3-{[10-fluoro-2-(1-methyl-1H-pyrazol-4-yl)[1,2,4]triazolo[1,5-c]quinazolin-5-yl]amino}azepan-2-one] | 66.7 | 2.17e-08 |  |  |  |
| O=C1NCCNC[C@H]1Nc1nc2c(Cl)cccc2c2nc(-c3cccc(F)c3)nn12 [Example 419, (6R)-6-{[7-chloro-2-(3-fluorophenyl)[1,2,4]triazolo[1,5-c]quinazolin-5-yl]amino}-1,4-diazepan-5-one] | 3.46 | 3.49e-09 |  |  |  |
